Data on three molecules can be found in patent publication US12404269B2, “Aminoquinazolinone and aminoisoquinolinone derivatives and application thereof” (ZHEJIANG UNIVERSITY, priority 2018, dated 2025).

Like-named read-outs stand apart in the source and are kept apart here.

One series relates to SW48 (PIK3CA mut). The experiment in a line: Tumor cell proliferation, CCK8 method, SW48. The conditions noted are these: Homo sapiens. The series is classed as cell-based. How it is done: (§1) The IC50 value was calculated using Graphpad Prism V5.0 software.
The test system of a further series is Kasumi-1 cell line. The series is described as follows: In vivo efficacy, Kasumi-1 subcutaneous transplanted tumor in nude mice. The conditions noted are these: 10 mg/Kg qd for 21 days, Kasumi-1 tumor, female nude mice, FIG. 1. How it is done: Female nude mice, weighing 20±3 g, were inoculated subcutaneously with Kasumi-1 cell line in their right axilla. The cell inoculation accounted for 1×10^7/mouse. After tumor formation, the diameter of the transplanted tumor was measured with a vernier caliper. When the tumor grown to 100-300 mm^3, the animals were divided into a model control group and administration groups with 6 […] in each group depending on body weight and tumor volume. The model control group was given the same amount of blank solvent. After grouping, the drugs were administered daily (qd) with a doge of 10 mg/Kg for 21 consecutive days. During the experiment, the diameter of the transplanted tumor and the weight of the mice were measured twice a week. The calculation formula of the tumor volume (TV) was: TV=½×a×b^2, where a and b represented length and width respectively. The relative tumor volume (RTV) was calculated from the measurement results, the calculation formula was: RTV=Vt/V0, where V0 was the tumor volume measured as grouping and administering (i.e. d0), and Vt was the tumor volume at each measurement. The evaluation index of anti-tumor activity was the relative tumor proliferation rate T/C(%), and the calculation formula was as follows: T/C(%)=(TRTV/CRTV)×100%, where TRTV: RTV of the treatment group; and CRTV: RTV of the negative control group.

The subject of another series is KPL4 (PIK3CA mut). The experiment in a line: Tumor cell proliferation, CCK8 method, KPL4. The class given is cell-based. How it is done: as §1
The next series has as its system MCF7 (PIK3CA mut). The experiment in a line: Tumor cell proliferation, CCK8 method, MCF7. The series is classed as cell-based, human. To be noted: Homo sapiens. On the procedure:
as §1

Another series relates to ZR-75-1 (PTEN loss). The experiment in a line: Tumor cell proliferation, CCK8 method, ZR-75-1. The class given is cell-based. The conditions noted are these: Homo sapiens; CCK8, ZR-75-1. On the procedure:
as §1

A further series deals with T1, PI3Kα (Homo sapiens, UniProt P42336).
T1 construct: purchased Carna Bioscience
T1 sequence (P42336 whole entry): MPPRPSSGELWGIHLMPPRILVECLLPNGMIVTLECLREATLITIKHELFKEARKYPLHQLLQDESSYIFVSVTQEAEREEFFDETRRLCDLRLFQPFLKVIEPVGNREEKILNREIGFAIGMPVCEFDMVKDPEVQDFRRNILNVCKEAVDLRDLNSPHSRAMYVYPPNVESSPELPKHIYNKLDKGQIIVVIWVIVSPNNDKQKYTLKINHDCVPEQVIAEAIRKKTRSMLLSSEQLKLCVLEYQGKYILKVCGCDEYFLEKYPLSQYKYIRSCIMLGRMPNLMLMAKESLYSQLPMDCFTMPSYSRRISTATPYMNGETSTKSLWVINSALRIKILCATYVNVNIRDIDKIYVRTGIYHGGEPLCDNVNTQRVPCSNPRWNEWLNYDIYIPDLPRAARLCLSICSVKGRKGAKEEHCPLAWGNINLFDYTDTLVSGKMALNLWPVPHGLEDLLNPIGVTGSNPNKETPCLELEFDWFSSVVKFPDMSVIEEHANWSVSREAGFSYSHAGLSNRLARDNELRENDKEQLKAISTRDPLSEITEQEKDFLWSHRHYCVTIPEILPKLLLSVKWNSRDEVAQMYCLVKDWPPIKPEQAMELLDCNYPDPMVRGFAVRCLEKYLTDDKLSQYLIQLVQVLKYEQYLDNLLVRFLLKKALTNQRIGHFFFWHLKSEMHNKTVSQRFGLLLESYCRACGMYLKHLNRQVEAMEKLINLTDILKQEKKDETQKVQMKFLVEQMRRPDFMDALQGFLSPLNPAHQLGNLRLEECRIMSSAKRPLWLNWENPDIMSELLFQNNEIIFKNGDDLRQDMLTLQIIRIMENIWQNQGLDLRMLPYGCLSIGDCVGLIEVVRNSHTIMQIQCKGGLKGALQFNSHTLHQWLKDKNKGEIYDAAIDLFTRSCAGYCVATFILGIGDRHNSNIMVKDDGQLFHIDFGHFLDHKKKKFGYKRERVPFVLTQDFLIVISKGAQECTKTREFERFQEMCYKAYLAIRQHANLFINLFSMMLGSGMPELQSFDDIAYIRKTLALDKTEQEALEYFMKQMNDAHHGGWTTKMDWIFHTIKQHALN
T1 sequence (P27986 whole entry partner): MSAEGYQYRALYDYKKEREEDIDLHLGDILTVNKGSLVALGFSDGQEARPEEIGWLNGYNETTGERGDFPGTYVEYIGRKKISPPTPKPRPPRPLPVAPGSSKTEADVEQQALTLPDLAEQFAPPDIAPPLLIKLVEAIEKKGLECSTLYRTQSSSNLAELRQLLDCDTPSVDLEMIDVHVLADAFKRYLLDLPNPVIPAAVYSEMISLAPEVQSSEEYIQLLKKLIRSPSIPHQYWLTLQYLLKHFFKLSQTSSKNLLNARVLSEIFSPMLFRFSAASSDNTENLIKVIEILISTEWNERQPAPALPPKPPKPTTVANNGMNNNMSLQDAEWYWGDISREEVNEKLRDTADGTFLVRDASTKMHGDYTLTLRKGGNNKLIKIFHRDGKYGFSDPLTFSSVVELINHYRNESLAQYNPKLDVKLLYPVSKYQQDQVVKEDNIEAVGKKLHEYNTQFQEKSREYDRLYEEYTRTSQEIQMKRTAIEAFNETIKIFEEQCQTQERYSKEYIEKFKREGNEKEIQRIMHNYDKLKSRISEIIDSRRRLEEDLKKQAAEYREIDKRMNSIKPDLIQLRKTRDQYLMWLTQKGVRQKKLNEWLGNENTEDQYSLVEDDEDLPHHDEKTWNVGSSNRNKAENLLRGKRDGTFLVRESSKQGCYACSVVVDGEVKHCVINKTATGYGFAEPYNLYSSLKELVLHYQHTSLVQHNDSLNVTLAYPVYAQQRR
The series is described as follows: PI3Kα molecular activity test (ADP-GLO). The class given is biochemical.

A further series deals with T2, PI3Kδ (Homo sapiens, UniProt O00329).
T2 construct: purchased Carna Bioscience
T2 sequence (O00329 whole entry): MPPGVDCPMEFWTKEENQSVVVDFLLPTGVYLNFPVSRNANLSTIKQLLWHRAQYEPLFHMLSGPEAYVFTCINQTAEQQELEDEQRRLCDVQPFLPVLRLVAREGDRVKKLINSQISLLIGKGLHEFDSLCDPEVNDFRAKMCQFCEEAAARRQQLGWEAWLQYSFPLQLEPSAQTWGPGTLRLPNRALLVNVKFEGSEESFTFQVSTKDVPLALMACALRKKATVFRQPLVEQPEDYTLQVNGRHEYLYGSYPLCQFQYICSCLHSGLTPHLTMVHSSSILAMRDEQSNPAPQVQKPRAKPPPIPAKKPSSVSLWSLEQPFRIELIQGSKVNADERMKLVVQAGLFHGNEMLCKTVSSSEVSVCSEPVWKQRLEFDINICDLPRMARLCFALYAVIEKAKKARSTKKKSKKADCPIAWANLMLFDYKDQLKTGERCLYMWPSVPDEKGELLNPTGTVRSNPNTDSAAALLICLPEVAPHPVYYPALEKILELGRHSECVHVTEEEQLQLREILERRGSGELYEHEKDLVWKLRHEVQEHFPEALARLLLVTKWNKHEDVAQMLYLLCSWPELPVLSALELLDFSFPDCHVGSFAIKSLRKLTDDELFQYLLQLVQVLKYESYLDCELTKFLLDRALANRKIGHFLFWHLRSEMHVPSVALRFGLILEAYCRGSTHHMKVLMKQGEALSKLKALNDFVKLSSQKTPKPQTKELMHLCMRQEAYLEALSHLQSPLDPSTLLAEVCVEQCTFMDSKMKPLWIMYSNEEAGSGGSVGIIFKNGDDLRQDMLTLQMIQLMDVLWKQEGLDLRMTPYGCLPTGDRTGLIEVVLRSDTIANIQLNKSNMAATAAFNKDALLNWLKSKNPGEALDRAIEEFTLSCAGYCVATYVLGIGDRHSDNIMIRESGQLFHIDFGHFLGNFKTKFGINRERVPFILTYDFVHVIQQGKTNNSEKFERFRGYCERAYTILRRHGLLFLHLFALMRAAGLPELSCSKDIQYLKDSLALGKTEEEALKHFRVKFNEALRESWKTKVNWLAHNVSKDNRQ
T2 sequence (P27986 whole entry partner): as the sequence (P27986 whole entry partner) above
The series is described as follows: PI3Kδ molecular activity test (ADP-GLO). The conditions noted are these: recombinant protein. The series is classed as biochemical.

A short description of series [1]: Pharmacokinetic determination in SD rats, tail vein injection. The series is classed as in vivo. To be noted: rat, plasma; male SD rats, intravenous, 1 mg/kg. On the procedure: Healthy SD rats weighing 200±20 g, male, were randomly divided into groups with 6 rats in each group, and were administered by tail vein injection at a dose of 1 mg/kg. The blood sampling time points for pharmacokinetic analysis: 5 min, 15 min, 30 min, 2 h, 4 h, 6 h, 8 h, 24 h, and 48 h after administration. About 0.3 mL of whole blood was collected via the orbit and placed in a heparinized test tube, centrifugalized at 6000 rpm for 10 min to separate the plasma, and store at −80° C. for testing. The plasma concentrations of the each compounds were detected with an Agilent liquid mass spectrometry (LC-MS/MS, Agilent Jet Stream Electrometric spray ion), and the relevant pharmacokinetic parameters were calculated using the WinNonLin 7.0 pharmacokinetic software non-compartment model method.

The conditions of series [2]: background; cited from earlier work.
For series [3] the following is noted: CLL patients, background; cited from earlier work.

In the case of `COc1c(OC[C@@H](O)CN2CCOCC2)ccc2c(=O)n(C)c(NC(=O)c3cnc(N)nc3)nc12` [8a-27, (S)-2-amino-N-(7-(2-hydroxy-3-morpholinopropoxy)-8-methoxy-3-methyl-4-oxo-3,4-dihydroquinazolin-2-yl) pyrimidine-5-carboxamide], the IC50 with SW48 (PIK3CA mut) (CCK8, SW48, read-out: SW48 (PIK3CA mut) proliferation IC50) was 20 to 200 nM; in the series on KPL4 (PIK3CA mut) (CCK8, KPL4, read-out: KPL4 (PIK3CA mut) proliferation IC50) it was 20 to 200 nM; with MCF7 (PIK3CA mut) (CCK8, MCF7, read-out: MCF7 (PIK3CA mut) proliferation IC50), less than 20 nM; with ZR-75-1 (PTEN loss), 200 to 1000 nM; on PI3Kα (recombinant protein, 100 μM ATP, 2 hours at room temperature), less than 20 nM; on PI3Kδ, 20 to 200 nM. Also, the “tumor growth inhibitory activity” value with Kasumi-1 cell line was “strong tumor growth inhibitory activity”. For the same molecule, the “Selectivity (PI3Kδ IC50/PI3KαIC50)” value at PI3Kα (PI3Kδ IC50/PI3Kα IC50) is “II (“II” represents 5-10 times)”.

Consider `COc1c(OCCCN2CCOCC2)ccc2c1N=C(NC(=O)c1cnc(N)nc1)N1CCN=C21` [Copanlisib, reference compound], for which the IC50 with SW48 (PIK3CA mut) (SW48, read-out: SW48 (PIK3CA mut) proliferation IC50) is less than 20 nM; with KPL4 (PIK3CA mut) (KPL4, read-out: KPL4 (PIK3CA mut) proliferation IC50), less than 20 nM; in the series with MCF7 (PIK3CA mut) (MCF7, read-out: MCF7 (PIK3CA mut) proliferation IC50), less than 20 nM; with ZR-75-1 (PTEN loss), less than 20 nM. Also, the Vd in [1] is 33.5 L/kg. The molecule also had a clearance in [1] of 36.7 mL/min/kg. In addition, the half-life in series [1] is 534 min. For the same molecule, the volume of distribution in series [2] is on record as 32.6 L/kg.

On to `CC[C@H](Nc1ncnc2[nH]cnc12)c1nc2cccc(F)c2c(=O)n1-c1ccccc1` [Idelalisib], for which the liver side effect entry in [3] was “elevated transaminase”.
